Assay results from patent US6914045B2, “Glycopeptide antibiotics” (Wyeth Holdings Corporation, priority 2001, dated 2005).
Converted amounts (≈) assume the structure as drawn.

Key:
Assay in all cases: in vitro antibacterial evaluation, MIC by broth dilution
Assay type in all cases: cell-based
Escherichia coli = conditions: 18 hours at 35° C.
Staphylococcus sp. = conditions: broth dilution, 18 hours at 35° C.
Method in brief: (§1)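 Test organisms, which included recent clinical isolates resistant to methicillin, penicillin and/or vancomycin, were inoculated at 5×10^5 CFU/mL into Muller-Hinton II […] containing antibiotic at 64-0.06 μg/mL. Minimum inhibitory concentrations were then read as the lowest level inhibiting growth.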

Enterococcus sp. = conditions: broth dilution, 18 hours at 35° C.
Method in brief: as §1

Streptococcus sp. = conditions: broth dilution, 18 hours at 35° C.
Method in brief: as §1

MIC Escherichia coli (ATCC 25922) (Escherichia coli): >64 µg/mL
MIC Escherichia coli (GC 4559) (Escherichia coli): 64 µg/mL (≈ 45.2 µM)
MIC Escherichia coli (GC 4560) (Escherichia coli): 2 µg/mL (≈ 1.41 µM)
MIC Coagulase Negative Staphylococcus (GC 4547) (Staphylococcus sp.): 2 µg/mL (≈ 1.41 µM)
MIC Coagulase Negative Staphylococcus (GC 4548) (Staphylococcus sp.): 2 µg/mL (≈ 1.41 µM)
MIC Coagulase Negative Staphylococcus (GC 4549) (Staphylococcus sp.): 1 µg/mL (≈ 0.707 µM)
MIC Coagulase Negative Staphylococcus (GC 4551) (Staphylococcus sp.): 4 µg/mL (≈ 2.83 µM)
MIC Coagulase Negative Staphylococcus (GC 6257) (Staphylococcus sp.): 2 µg/mL (≈ 1.41 µM)
MIC Staphylococcus aureus (ATCC 29213) (Staphylococcus sp.): 4 µg/mL (≈ 2.83 µM)
MIC Staphylococcus aureus (GC 1131) (Staphylococcus sp.): 4 µg/mL (≈ 2.83 µM)
MIC Staphylococcus aureus (GC 3051) (Staphylococcus sp.): 4 µg/mL (≈ 2.83 µM)
MIC Staphylococcus aureus (GC 3053) (Staphylococcus sp.): 8 µg/mL (≈ 5.65 µM)
MIC Staphylococcus aureus (GC 4541) (Staphylococcus sp.): 4 µg/mL (≈ 2.83 µM)
MIC Staphylococcus aureus (GC 4542) (Staphylococcus sp.): 4 µg/mL (≈ 2.83 µM)
MIC Staphylococcus aureus (GC 4544) (Staphylococcus sp.): 4 µg/mL (≈ 2.83 µM)
MIC Staphylococcus aureus (GC 4545) (Staphylococcus sp.): 4 µg/mL (≈ 2.83 µM)
MIC Staphylococcus aureus-SMITH (GC 4543) (Staphylococcus sp.): 4 µg/mL (≈ 2.83 µM)
MIC Staphylococcus aureus (ATCC 29213) (Staphylococcus sp.; strain ATCC 29213): 4 µg/mL (≈ 2.83 µM)
MIC Staphylococcus aureus (GC 1131) (Staphylococcus sp.; strain GC 1131): 4 µg/mL (≈ 2.83 µM)
MIC Staphylococcus aureus (GC 3051) (Staphylococcus sp.; strain GC 3051): 4 µg/mL (≈ 2.83 µM)
MIC Staphylococcus aureus (GC 3053) (Staphylococcus sp.; strain GC 3053): 8 µg/mL (≈ 5.65 µM)
MIC Staphylococcus aureus (GC 4541) (Staphylococcus sp.; strain GC 4541): 4 µg/mL (≈ 2.83 µM)
MIC Staphylococcus aureus (GC 4542) (Staphylococcus sp.; strain GC 4542): 4 µg/mL (≈ 2.83 µM)
MIC Staphylococcus aureus-SMITH (GC 4543) (Staphylococcus sp.; strain GC 4543): 4 µg/mL (≈ 2.83 µM)
MIC Staphylococcus aureus (GC 4544) (Staphylococcus sp.; strain GC 4544): 4 µg/mL (≈ 2.83 µM)
MIC Staphylococcus aureus (GC 4545) (Staphylococcus sp.; strain GC 4545): 4 µg/mL (≈ 2.83 µM)
MIC Coagulase Negative Staphylococcus (GC 4547) (Staphylococcus sp.; strain GC 4547): 2 µg/mL (≈ 1.41 µM)
MIC Coagulase Negative Staphylococcus (GC 4548) (Staphylococcus sp.; strain GC 4548): 2 µg/mL (≈ 1.41 µM)
MIC Coagulase Negative Staphylococcus (GC 4549) (Staphylococcus sp.; strain GC 4549): 1 µg/mL (≈ 0.707 µM)
MIC Coagulase Negative Staphylococcus (GC 4551) (Staphylococcus sp.; strain GC 4551): 4 µg/mL (≈ 2.83 µM)
MIC Coagulase Negative Staphylococcus (GC 6257) (Staphylococcus sp.; strain GC 6257): 2 µg/mL (≈ 1.41 µM)
MIC Enterococcus avium (GC 4558) (Enterococcus sp.): 32 µg/mL (≈ 22.6 µM)
MIC Enterococcus faecalis (ATCC 29212) (Enterococcus sp.): 32 µg/mL (≈ 22.6 µM)
MIC Enterococcus faecalis (GC 2242) (Enterococcus sp.): 16 µg/mL (≈ 11.3 µM)
MIC Enterococcus faecalis (GC 2691) (Enterococcus sp.): 32 µg/mL (≈ 22.6 µM)
MIC Enterococcus faecalis (GC 3059) (Enterococcus sp.): 32 µg/mL (≈ 22.6 µM)
MIC Enterococcus faecalis (GC 4552) (Enterococcus sp.): 32 µg/mL (≈ 22.6 µM)
MIC Enterococcus faecalis (GC 4553) (Enterococcus sp.): 32 µg/mL (≈ 22.6 µM)
MIC Enterococcus faecalis (GC 4554) (Enterococcus sp.): 32 µg/mL (≈ 22.6 µM)
MIC Enterococcus faecalis (GC 6189) (Enterococcus sp.): 64 µg/mL (≈ 45.2 µM)
MIC Enterococcus faecium (GC 2243) (Enterococcus sp.): 16 µg/mL (≈ 11.3 µM)
MIC Enterococcus faecium (GC 4556) (Enterococcus sp.): 32 µg/mL (≈ 22.6 µM)
MIC Enterococcus faecium (GC 4557) (Enterococcus sp.): 4 µg/mL (≈ 2.83 µM)
MIC Enterococcus faecalis (ATCC 29212) (Enterococcus sp.; inoculum 5×10^5 CFU/mL, strain ATCC 29212): 32 µg/mL (≈ 22.6 µM)
MIC Enterococcus faecalis (GC 2242) (Enterococcus sp.; inoculum 5×10^5 CFU/mL, strain GC 2242): 16 µg/mL (≈ 11.3 µM)
MIC Enterococcus faecium (GC 2243) (Enterococcus sp.; inoculum 5×10^5 CFU/mL, strain GC 2243): 16 µg/mL (≈ 11.3 µM)
MIC Enterococcus faecalis (GC 2691) (Enterococcus sp.; inoculum 5×10^5 CFU/mL, strain GC 2691): 32 µg/mL (≈ 22.6 µM)
MIC Enterococcus faecalis (GC 3059) (Enterococcus sp.; inoculum 5×10^5 CFU/mL, strain GC 3059): 32 µg/mL (≈ 22.6 µM)
MIC Enterococcus faecalis (GC 4552) (Enterococcus sp.; inoculum 5×10^5 CFU/mL, strain GC 4552): 32 µg/mL (≈ 22.6 µM)
MIC Enterococcus faecalis (GC 4553) (Enterococcus sp.; inoculum 5×10^5 CFU/mL, strain GC 4553): 32 µg/mL (≈ 22.6 µM)
MIC Enterococcus faecalis (GC 4554) (Enterococcus sp.; inoculum 5×10^5 CFU/mL, strain GC 4554): 32 µg/mL (≈ 22.6 µM)
MIC Enterococcus faecium (GC 4556) (Enterococcus sp.; inoculum 5×10^5 CFU/mL, strain GC 4556): 32 µg/mL (≈ 22.6 µM)
MIC Enterococcus faecium (GC 4557) (Enterococcus sp.; inoculum 5×10^5 CFU/mL, strain GC 4557): 4 µg/mL (≈ 2.83 µM)
MIC Enterococcus avium (GC 4558) (Enterococcus sp.; inoculum 5×10^5 CFU/mL, strain GC 4558): 32 µg/mL (≈ 22.6 µM)
MIC Enterococcus faecalis (GC 6189) (Enterococcus sp.; inoculum 5×10^5 CFU/mL, strain GC 6189): 64 µg/mL (≈ 45.2 µM)
MIC Streptococcus agalactiae (GC 4564) (Streptococcus sp.): 2 µg/mL (≈ 1.41 µM)
MIC Streptococcus pneumoniae (ATCC 6301) (Streptococcus sp.): 0.5 µg/mL (≈ 0.353 µM)
MIC Streptococcus pneumoniae (GC 1894) (Streptococcus sp.): 0.5 µg/mL (≈ 0.353 µM)
MIC Streptococcus pneumoniae (GC 4565) (Streptococcus sp.): 1 µg/mL (≈ 0.707 µM)
MIC Streptococcus pyogenes (GC 4563) (Streptococcus sp.): 2 µg/mL (≈ 1.41 µM)
MIC Streptococcus pneumoniae (ATCC 6301) (Streptococcus sp.; inoculum 5×10^5 CFU/mL, strain ATCC 6301): 0.5 µg/mL (≈ 0.353 µM)
MIC Streptococcus pneumoniae (GC 1894) (Streptococcus sp.; inoculum 5×10^5 CFU/mL, strain GC 1894): 0.5 µg/mL (≈ 0.353 µM)
MIC Streptococcus pyogenes (GC 4563) (Streptococcus sp.; inoculum 5×10^5 CFU/mL, strain GC 4563): 2 µg/mL (≈ 1.41 µM)
MIC Streptococcus agalactiae (GC 4564) (Streptococcus sp.; inoculum 5×10^5 CFU/mL, strain GC 4564): 2 µg/mL (≈ 1.41 µM)
MIC Streptococcus pneumoniae (GC 4565) (Streptococcus sp.; inoculum 5×10^5 CFU/mL, strain GC 4565): 1 µg/mL (≈ 0.707 µM)
SMILES: COc1ccc(COCC2OC(OC3C(CO)OC(Oc4ccc(CC5NC(=O)C(C(C)c6ccccc6)NC(=O)CNC(=O)C(CO)NC(=O)C(C(O)C6CNC(=N)N6C6OC(CO)C(O)C(O)C6O)NC(=O)C(C(O)C6CNC(=N)N6)NC5=O)cc4)C(O)C3O)C(O)C(O)C2O)cc1 (stereo not shown) [Example 232]
MIC Staphylococcus haemolyticus (GC 4546) (Staphylococcus sp.): 2 µg/mL (≈ 1.41 µM)
MIC Staphylococcus haemolyticus (GC 4546) (Staphylococcus sp.; strain GC 4546): 2 µg/mL (≈ 1.41 µM)
